Reference: patent publication US20230095836A1, “SUBSTITUTED 5,6-DIPHENYL-3(2H)-PYRIDAZINONES FOR USE AS FUNGICIDES” (FMC Corporation, priority 2020, published 2023)

Tests used:
Type in all cases: in vivo
[1] = test system: Blumeria graminis f. sp. tritici; test: Test C: test suspension sprayed on wheat seedlings, inoculated next day with Blumeria graminis f. sp. tritici (wheat powdery mildew); visual disease rating (100 = 100% disease control, 0 = no control; dash = not tested)
Summary of the method: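 Wheat seedlings were sprayed to run-off with test suspension, then dusted next day with Blumeria graminis f. sp. tritici spores. After 8 days at 20 °C in a growth chamber, disease was rated visually as percent control relative to untreated controls.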

Phakopsora pachyrhizi = test: Test D: test solution sprayed on soybean seedlings, inoculated next day with Phakopsora pachyrhizi (Asian soybean rust); visual disease rating (100 = 100% disease control, 0 = no control; dash = not tested)
Summary of the method: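 Compounds predissolved in acetone (3% of final volume), suspended at ppm concentrations in 50/50 acetone/water with 250 ppm PEG400, sprayed to run-off on soybean seedlings. Inoculated next day with spores, 24 h saturated atmosphere at 22 °C, then 8 days growth chamber at 22 °C; visual rating, 100 = full control.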

Botrytis cinerea = test: Test E: test suspension sprayed on tomato seedlings, inoculated next day with Botrytis cinerea (tomato Botrytis); visual disease rating (100 = 100% disease control, 0 = no control; dash = not tested)
Summary of the method: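 Tomato seedlings were sprayed to run-off and inoculated next day with Botrytis cinerea spores. They were held 48 h at 20° C in saturated humidity, then 3 days at 24° C. Disease control was rated visually against controls (100 = full, 0 = none).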

Alternaria solani = test: Test F: test suspension sprayed on tomato seedlings, inoculated next day with Alternaria solani (tomato early blight); visual disease rating (100 = 100% disease control, 0 = no control; dash = not tested)
Summary of the method: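 Tomato seedlings sprayed to run-off with test suspension, inoculated next day with A. solani spores, held saturated at 27° C. for 48 h, then 20° C. for 3 days. Disease visually rated as % control relative to untreated controls.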

[2] = test system: Puccinia recondita f. sp. tritici; test: Test B: test solution sprayed on wheat seedlings, inoculated next day with Puccinia recondita f. sp. tritici (wheat leaf rust); disease rating (100 = 100% disease control, 0 = no control; dash = not tested)
Text: The resulting test suspensions were then used in Tests A-F. The test solution was sprayed to the point of run-off on wheat seedlings. […] A rating of 100 indicates 100% disease control and a rating of 0 indicates no disease control (relative to the controls). A dash (—) indicates the compound was not tested.

Zymoseptoria tritici = test: Test A: test solution sprayed on wheat seedlings, inoculated next day with Zymoseptoria tritici (wheat leaf blotch); disease rating (100 = 100% disease control, 0 = no control; dash = not tested)
Summary of the method: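 Wheat seedlings sprayed to run-off with test solution, inoculated next day with Z. tritici spores, held 48 h at 24° C in saturated atmosphere, then 17 days at 20° C before rating. Scores are % disease control relative to controls (100 = full control, 0 = none).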

SMILES | Test C disease control rating ([1]; 50 ppm) [%] | Test D disease control rating (Phakopsora pachyrhizi; 50 ppm) [%] | Test E disease control rating (Botrytis cinerea; 50 ppm) [%] | Test F disease control rating (Alternaria solani; 50 ppm) [%] | Test B disease control rating ([2]; 50 ppm) [%] | Test A disease control rating (Zymoseptoria tritici; 50 ppm) [%] | other results
Cn1nc(-c2ccc(F)cc2Cl)c(-c2ccc(F)cc2Cl)c(CO)c1=O [Compound 172] |  |  |  |  |  |  | Test C disease control rating ([1]; 250 ppm): 87%; Test D disease control rating (Phakopsora pachyrhizi; 250 ppm): 78%; Test E disease control rating (Botrytis cinerea; 250 ppm): 83%; Test F disease control rating (Alternaria solani; 250 ppm): 0%; Test B disease control rating ([2]; 250 ppm): 92%; Test A disease control rating (Zymoseptoria tritici; 250 ppm): 79%
CCOc1ccc(Cl)c(-c2nn(C)c(=O)c(C)c2-c2ccc(F)cc2Cl)c1 [Compound 175] | 99 | 100 | 98 | 100 | 100 | 100 | 
CON(C)C(=O)c1c(-c2ccc(F)cc2Cl)c(-c2ccc(F)cc2Cl)nn(C)c1=O [Compound 176] |  |  |  |  |  |  | Test C disease control rating ([1]; 250 ppm): 0%; Test D disease control rating (Phakopsora pachyrhizi; 250 ppm): 0%; Test E disease control rating (Botrytis cinerea; 250 ppm): 0%; Test F disease control rating (Alternaria solani; 250 ppm): 0%; Test B disease control rating ([2]; 250 ppm): 80%; Test A disease control rating (Zymoseptoria tritici; 250 ppm): 4%
Cn1nc(-c2ccc(F)cc2Cl)c(-c2ccc(F)cc2Cl)c(CC#N)c1=O [Compound 177] | 0 | 0 | 0 | 0 | 80 | 88 | 
CCc1c(-c2c(F)cccc2F)c(-c2cccc(OC)c2Cl)nn(C)c1=O [Compound 178] | 100 | 100 | 93 | 100 | 100 | 100 | 
CCc1c(-c2c(F)cccc2F)c(-c2cc(OC)ccc2Cl)nn(C)c1=O [Compound 179, 6-(2-chloro-5-methoxyphenyl)-5-(2,6-difluorophenyl)-4-ethyl-2-methyl-3(2H)-pyridazinone] |  |  |  |  |  |  | pest or weed control at 50 ppm ([1]; 50 ppm): 100%; pest or weed control at 50 ppm (Phakopsora pachyrhizi; 50 ppm): 100%; pest or weed control at 50 ppm (Botrytis cinerea; 50 ppm): 94%; pest or weed control at 50 ppm (Alternaria solani; 50 ppm): 100%; pest or weed control at 50 ppm ([2]; 50 ppm): 100%; pest or weed control at 50 ppm (Zymoseptoria tritici; 50 ppm): 100%
CCc1c(-c2c(F)cccc2F)c(-c2cc(OC)cc(F)c2Cl)nn(C)c1=O [Compound 180] | 100 | 100 | 99 | 100 | 100 | 100 | 
CCc1c(-c2c(F)cccc2F)c(-c2cc(OC)cc(F)c2Br)nn(C)c1=O [Compound 181] | 100 | 100 | 94 | 100 | 100 | 98 | 
Cn1nc(-c2ccccc2Cl)c(-c2ccc(F)cc2Cl)c(O)c1=O [Compound 182] | 0 | 0 | 0 | 0 | 0 | 0 | 
COc1ccc(Cl)c(-c2nn(C)c(=O)c(Cl)c2-c2ccccc2F)c1 [Compound 183] | 96 | 94 | 98 | 100 | 100 | 100 | 
COc1ccc(Cl)c(-c2nn(C)c(=O)c(Cl)c2-c2ccccc2Cl)c1 [Compound 184] | 96 | 99 | 96 | 99 | 100 | 100 | 
COc1ccc(Cl)c(-c2nn(C)c(=O)c(Cl)c2-c2ccc(F)cc2F)c1 [Compound 185] | 99 | 100 | 96 | 100 | 100 | 100 | 
COc1ccc(Cl)c(-c2nn(C)c(=O)c(Cl)c2-c2ccc(C#N)cc2Cl)c1 [Compound 186] | 97 | 99 | 90 | 100 | 100 | 99 | 
Cn1nc(-c2ccccc2)c(-c2c(F)cccc2F)cc1=O [Compound 191] |  |  |  |  |  |  | Test C disease control rating ([1]; 250 ppm): 99%; Test D disease control rating (Phakopsora pachyrhizi; 250 ppm): 0%; Test E disease control rating (Botrytis cinerea; 250 ppm): 99%; Test F disease control rating (Alternaria solani; 250 ppm): 0%; Test B disease control rating ([2]; 250 ppm): 9%; Test A disease control rating (Zymoseptoria tritici; 250 ppm): 72%
COc1ccc(-c2nn(C)c(=O)cc2-c2c(F)cccc2F)c(F)c1 [Compound 192] |  |  |  |  |  |  | Test C disease control rating ([1]; 250 ppm): 84%; Test D disease control rating (Phakopsora pachyrhizi; 250 ppm): 91%; Test E disease control rating (Botrytis cinerea; 250 ppm): 93%; Test F disease control rating (Alternaria solani; 250 ppm): 0%; Test B disease control rating ([2]; 250 ppm): 80%; Test A disease control rating (Zymoseptoria tritici; 250 ppm): 38%
Cn1nc(-c2ccccc2)c(-c2c(F)cccc2F)c(Cl)c1=O [Compound 193] |  |  |  |  |  |  | Test C disease control rating ([1]; 250 ppm): 100%; Test D disease control rating (Phakopsora pachyrhizi; 250 ppm): 61%; Test E disease control rating (Botrytis cinerea; 250 ppm): 100%; Test F disease control rating (Alternaria solani; 250 ppm): 99%; Test B disease control rating ([2]; 250 ppm): 100%; Test A disease control rating (Zymoseptoria tritici; 250 ppm): 97%
COc1cc(OC)c(Cl)c(-c2nn(C)c(=O)c(C)c2-c2c(F)cccc2F)c1 [Compound 194, 6-(2-chloro-3,5-dimethoxyphenyl)-5-(2,6-difluorophenyl)-2,4-dimethyl-3(2H)-pyridazinone] |  |  |  |  |  |  | pest or weed control at 50 ppm ([1]; 50 ppm): 100%; pest or weed control at 50 ppm (Phakopsora pachyrhizi; 50 ppm): 100%; pest or weed control at 50 ppm (Botrytis cinerea; 50 ppm): 100%; pest or weed control at 50 ppm (Alternaria solani; 50 ppm): 99%; pest or weed control at 50 ppm ([2]; 50 ppm): 100%; pest or weed control at 50 ppm (Zymoseptoria tritici; 50 ppm): 100%
CCn1nc(-c2cc(OC)cc(OC)c2Cl)c(-c2ccc(F)cc2Cl)cc1=O [Compound 202] | 72 | 44 | 99 | 0 | 68 | 99 | 
